Columns and labels:
[1] = system: AsPC-1 human pancreatic cancer cells with KRAS^G12D mutation; assay: AsPC-1 3D CTG experiment (anti-proliferation); format: cell-based; settings: ASPC1, 168 h, 7 days incubation
Source text: This experiment aims to verify the inhibitory effect of the compounds of the present disclosure on the proliferation of AsPC-1 human pancreatic cancer cells with KRAS^G12D mutation.
(§1) Cell line AsPC-1 and RPMI-1640 medium were purchased from GIBCO, and FBS was purchased from Hyclone. The 96-well plate was purchased from Ultra Low Cluster, CellTiter-Glo® 3D Cell Viability Assay reagents (chemiluminescent 3D cell viability assay reagents) were purchased from Promega, and 2104 EnVision plate reader was purchased from PerkinElmer.
AsPC-1 cells were cultured in an incubator at 37° C. with 5% CO2 the conditions of RPMI-1640+10% FBS. Regular passaging was performed, and cells in the logarithmic growth phase were selected for plating. AsPC-1 cells were seeded in a 96-well U-bottom cell culture plate, and each well of 135 μL cell suspension contained 500 AsPC-1 cells. The culture plate was cultured overnight in a 37° C., 5% CO2 incubator with 100% relative humidity. The test compound was diluted 5-fold to the eighth concentration using a pipette, ranging from 200 μM to 2.56 nM, and tested in duplicate. 78 μL of culture medium per well was added to an intermediate plate. Subsequently, 2 μL of the gradient diluted compound per well was transferred to the corresponding wells of the intermediate plate and mixed well. […] A multimode microplate reader was used for reading. […]

[2] = system: PANC04.03 human pancreatic cancer cells with KRAS^G12D mutation; assay: PANC04.03 3D CTG experiment (anti-proliferation); format: cell-based; settings: Panc 04.03, 168 h, 7 days incubation
Source text: This experiment aims to verify the inhibitory effect of the compounds of the present disclosure on the proliferation of PANC04.03 human pancreatic cancer cells with KRAS^G12D mutation.
as §1, with “PANC04.03” for “AsPC-1”, “GIBCO,” for “GIBCO, and”, “Hyclone, and human insulin was purchased from Yeasen.” for “Hyclone.”, “En Vision” for “EnVision”
PANC04.03 cells were cultured in an incubator at 37° C. with 5% CO2 under the conditions of RPMI-1640+15% FBS+5 µg/mL human insulin. Regular passaging was performed, and cells in the logarithmic growth phase were selected for plating. PANC04.03 cells were seeded in a 96-well U-bottom cell culture plate, and each well of 135 μL cell suspension contained 2000 PANC04.03 cells. The culture plate was cultured overnight in a 37° C., 5% CO2 incubator with 100% relative humidity. The test compound was diluted 5-fold to the eighth concentration using a pipette, ranging from 200 μM to 2.56 nM, and tested in duplicate. 78 μL of culture medium per well was added to an intermediate plate. […] A multimode microplate reader was used for reading. […]

[3] = system: GP2D cell subcutaneously transplanted tumors; assay: In vivo pharmacodynamic experiment of GP2D tumor model; parameters: species or system Balb/c Nude mice; settings: p.o., BID, 28 days of administration
Procedure: In vivo pharmacodynamics of GP2D cell subcutaneously transplanted tumors in Balb/c Nude mice model with human colon cancer
Cell culture: Human colon cancer GP2D cells were cultured in monolayer in vitro. The culture conditions were DMEM/F12 medium+20% fetal bovine serum, and cultured in a 37° C., 5% carbon dioxide incubator. Routine digestion with trypsin-EDTA was performed twice a week for passaging. When the cell saturation reached 80% to 90% and the required quantity was reached, the cells were harvested, counted, resuspended in an appropriate amount of PBS, and mixed with matrigel at a ratio of 1:1 to obtain a cell suspension with a cell density of 25×10^6 cells/mL.
Cell inoculation: 0.2 mL (5×10^6 cells/mouse) of GP2D cells (added with Matrigel with a volume ratio of 1:1) were subcutaneously inoculated into the right back of each mouse. […]
Tumor diameters were measured twice a week with a vernier caliper. […]
The tumor inhibitory efficacy of the compound was evaluated by TGI (%) or relative tumor proliferation rate T/C (%). […] The relative tumor volume (RTV) was calculated based on the results of tumor measurements. The calculation formula is RTV=Vt/V0, where V0 is the average tumor volume measured at the beginning of administration in groups (i.e., D0), and Vt is the average tumor volume measured at a certain measurement. […]

Work on `C#Cc1c(F)ccc2cc(N)cc(-c3ncc4c(N5CC6CCC(C5)N6)nc(OC[C@@]56CC(=C)CN5C[C@@H]5C[C@@H]56)nc4c3F)c12` (single isomer, unassigned) [Compound 3] yielded an IC50 [1] of 5.74 nM, an IC50 [2] of 34.2 nM and a TGI ([3]; 30 mpk) of 85.57%. The TGI ([3]; 100 mpk) was 98.95%.
